Experimental findings from patent US6365616B1, “Methimazole derivatives and tautomeric cyclic thiones to treat autoimmune diseases” (Sentron Medical, Inc., priority 1998, dated 2002) are described below.

Where two headings read alike, the source gives them in different places. Marks after values point to notes of the source that are not given here.

Data set [1] has as its system thyroglobulin RNA. In words: Northern analysis of thyroglobulin RNA levels in FRTL-5 cells. In kind it is cell-based, rat.
For data set [2], the system named is swine class I promoter (PD1). The experiment in a line: Luciferase assay, FRTL-5 cells stably transfected with class I promoter-luciferase chimeras. The format is cell-based. To be noted: for inhibition at 10 µM / inhibition at 25 µM / inhibition at 100 µM / inhibition at 1000 µM: Sus scrofa, FRTL-5, 6H medium; for inhibition at 10 µM / inhibition at 25 µM / inhibition at 100 µM / inhibition at 1000 µM / Luciferase activity + 5 mM MMI / Luciferase activity +γ-IFN + 5 mM MMI: 40 hours; for inhibition at 1000 µM: 1.0 mM. The source says: The swine PD1 5′-flanking sequence-CAT chimeras (−1100, −203, and −127), as well as two mutants with the CRE site with −107 to −100 bp deleted (−203ΔCRE and −127ΔCRE) were used to create luciferase reporter gene constructs. The inserts were released by restriction enzyme digestion, purified from agarose gel using QIAEX (QIAGEN, Chatsworth, Calif.) and ligated in the NheI-HindIII site of the PGL-2 basic vector (PROMEGA, Madison, Wis.) using a DNA ligation kit from TAKARA biomedicals (TAKARA SHUZO Co). JM109 bacterial competent cells (PROMEGA, Madison, Wis.) were transformed with the ligation reaction and plated in agar plates for 12 h at 37° C. The colonies were picked and screened with minipreps using QIAprep spin plasmid kit (QIAGEN, Chatsworth, Calif.) and restriction enzyme digestion. The plasmids were then purified by CsCl gradient centrifugation.
The PD1-PGL-2 basic constructs and the Class II-PGL-2 basic constructs were stably transfected in the FRTL-5 cells using a Lipofectamine (GIBCO, Life Technologies, Inc.) method. Near confluent cells in 6H medium were cotransfected with 20 μg of plasmid DNA and 2 μg of a pcDNA3neo or a pPUR selection vector (CLONTECH, Palo Alto, Calif.). After 24-48 hours, 400 μg/ml of G418 (GIBCO, Life Technologies, Inc.) or 10 μM of puromycin (SIGMA) were added to the medium. After 3 weeks the antibiotic-resistant colonies were cloned by limiting dilution and screened to determine their interferon sensitivity. At least 5 cell lines of each construct were isolated, each of whose activity was increased by adding 100 U/ml γ interferon to the medium of the cells. The following data (Tables 10-13) were obtained with one clone of each of the class I or class II-luciferase chimera, but were representative of at least three other clones of each.
Luciferase activity was measured using the Luciferase assay system (PROMEGA, Madison, Wis.). Briefly, treated or untreated cells from a 100 mm culture dish were washed with PBS, scraped and collected in microfuge tubes. The pellet was dissolved in 100 μl 1× reporter lysis buffer and incubated at room temperature for 15 minutes. Cells were frozen in dry ice plus ethanol and thawed in water at room temperature. After vortexing for 10 sec, tubes were centrifuged at 12,000×g for 5 min. Twenty μl of the supernatant were mixed with 100 μl of Luciferase assay reagent and immediately placed in a luminometer. Light was measured for a period of 10 sec after a 2 sec delay.
Treatment of cells, maintained either in the presence of TSH or its absence, with 100 U/ml interferon, increased class I and class II promoter activity (Table 10). In this experiment FRTL-5 cells were grown to 80% confluency in 6H medium with TSH then treated with 100 U/ml γ-interferon, 5 mM MMI or both together. Luciferase activity was measured after 40 hours as described. Several points are notable. First, interferon increases both class I and class II promoter activity in the stable transfectants. Second, MMI inhibits both interferon-increased class I and interferon-increased class II promoter activity.

The subject of data set [3] is (NZB x NZW)F1 mice. In words: Prevention of proteinuria (SLE model) in female (NZB x NZW)F1 mice. The format is in vivo. To be noted: for Animals with proteinuria, 30-500 (mg/dl proteinuria) / Animals with proteinuria, >500 (mg/dl proteinuria) / Animals with proteinuria, Neg-Trace (mg/dl proteinuria) / development of proteinuria at 7.5 mos: oral; for Animals with proteinuria, 30-500 (mg/dl proteinuria) / Animals with proteinuria, >500 (mg/dl proteinuria) / Animals with proteinuria, Neg-Trace (mg/dl proteinuria): 0.05% MMI, 0.01% 5-phenylmethimazole, 0.05% 2-mercaptoimidazole; for significant numbers of immune complexes in kidneys (FIG. 15): immunohistology of frozen kidney sections; for development of proteinuria at 7.5 mos: compound 10 at a fifth the MMI concentration. The source says:
Female (NZB x NZW)F1 mice were obtained from Jackson Labs. Animals were followed with AMES 2855 Uristix (Miles) to semiquantitatively measure proteinuria. Proteinuria was taken as a measure of development of SLE and MMI suppression of proteinuria as suppression of renal complexes in kidney (Mozes et al., J. Clin Immunology 18:106-113 (1998)). At 7-8 mos. mice develop proteinuria reflecting renal disease. Treatment was from 2 mos to 6 mos of age. Treatment was oral. Each group had 8 animals to start.
In this experiment, immunohistology was performed in a blind fashion on 5 μm thick frozen kidney sections which were fixed and stained with FITC-conjugated goat antibodies to immunoglobulin G (γ chain specific) as described (Mozes, et al., Science 261:91-93 (1993); Mozes, E., et al., ibid (1998)). Compound 10, a tautomeric cyclic thione, and MMI are effective in preventing SLE in this experimental model.
Death of some animals in this experiment occurred for technical reasons, i.e. flooding of cages, handling, etc., in the last 2 mos. However, losses in the control group were similar to experimental groups. MMI, 2-mercaptoimidazole, and Compound 10 treatments were administered during the period between 2 and 6.25 months of age.

The subject of data set [4] is MHC class II RNA. In words: Northern analysis of MHC class II RNA levels in FRTL-5 cells. The format is cell-based, rat. To be noted: 100 U/ml γ-interferon, 6H medium, 40 hours.
Data set [5] relates to NOD mice. In words: Prevention of glucosuria and diabetes in female NOD mice. To be noted: 5-phenylmethimazole at a fifth the MMI concentration. The format is in vivo, mouse. The source says:
Female NOD mice were also obtained from Jackson Labs, along with control mice from which the strain was developed (Makino et al., Exp. Anim. 29:1-13 (1980); Wicker, L. S., et al., Diabetes 35:855-860 (1986)). Animals showing urine Tes-Tape positivity greater than 1 + were considered positive and to have diabetes (Wicker, L. S., et al., ibid (1986)). At 8-16 weeks, […] of NOD mice develop glucosuria and diabetes according to the literature (Wicker, L. S., et al., ibid (1986)).
Table 20 presents results of the ability of Female NOD mice (5 animals were in each group) to develop glucosuria and diabetes when treated with MMI and compound 10 (5-phenylmethimazole) at a fifth the MMI concentration, by comparison to no treatment or treatment with 2-mercaptoimidazole. Mice were from Jackson Labs in this experiment. Animals showing urine Tes-Tape positivity greater than 1+ were considered positive and to have diabetes.
Compound 10 and MMI are therefore effective in preventing diabetes in the NOD mouse example of diabetes.

Setting [6] is: 100 U/ml γ-interferon, read-out: % inhibition of IFN-increased p(−203)LUC class I promoter activity.
[7] abbreviates: read-out: % inhibition of basal p(−203)LUC class I promoter activity.

What is called inhibition is how much of the control response was suppressed. Regarding `Cn1c(-c2ccccc2)cnc1S` [Compound 10, 5-Phenylmethimazole], the “increase of TG RNA levels compared with MMI” value in data set [1] (Table 17, 1 mM) was “no comparable increase”. In data set [2] (setting [6]), the inhibition at 10 µM was found to be 45 ± 7%, the inhibition at 100 µM came to 90 ± 17% and the inhibition at 1000 µM stood at 90 ± 13%. In data set [2] (setting [7]), the inhibition at 25 µM came to 41 ± 5%, the inhibition at 100 µM is 51 ± 3% and the inhibition at 1000 µM worked out at 52 ± 8%. In data set [3] (6 mos), the “Animals with proteinuria, 30-500 (mg/dl proteinuria)” value (“Animals … 30-500 (mg/dl proteinuria)” below) is given as 0 of 8; the “Animals with proteinuria, >500 (mg/dl proteinuria)” value (shortened to “Animals … >500 (mg/dl proteinuria)”) was 0 of 8; the “Animals with proteinuria, Neg-Trace (mg/dl proteinuria)” value (shortened to “Animals with proteinuria, Neg-Trace”) was 8 of 8. Further, in data set [3] (7.5 mos), the “Animals … 30-500 (mg/dl proteinuria)” value is 1 of 6; the “Animals … >500 (mg/dl proteinuria)” value is reported as 0 of 6; the “Animals with proteinuria, Neg-Trace” value is 5 of 6*. Also, in data set [3], the “significant numbers of immune complexes in kidneys (FIG. 15)” value is “not true” and the “development of proteinuria at 7.5 mos” value was “significantly prevented proteinuria”. In data set [3] (one-fifth the MMI concentration, NZB and NOD mouse experiments), the toxicity in vivo result is reported as “nontoxic”. The “% inhibition of class II RNA expression” value in data set [4] (100 μM) came out at 75 ± 15%. The “% inhibition of class II RNA expression” value in data set [4] (1 mM) worked out at 87 ± 4%. For the same compound, the “development of glucosuria and diabetes by 12 weeks” value in data set [5] is “prevented glucosuria”.
With `Cn1ccnc1S` [Compound 1, 1-Methylimidazole-2-thiol], in data set [1] (1 mM, 6H medium, 40 hours), the “% increase in TG RNA expression” value came out at 207 ± 10%. For the same compound, the “increase of TG RNA levels” value in data set [1] (Table 17, 1 mM) is reported as about 2 fold. Also, the “effect on basal p(−203) class I luciferase activity” value in data set [2] (1 or 5 mM, stable transfectants) is given as “no significant effect”. For the same compound, in data set [2] (setting [6]), the inhibition at 10 µM amounted to 0%, the inhibition at 100 µM worked out at 0% and the inhibition at 1000 µM was 45 ± 10%. In addition, in data set [2] (setting [7]), the inhibition at 25 µM was determined as 0%, the inhibition at 100 µM amounted to 0% and the inhibition at 1000 µM stood at 0%. In data set [2] (Vector-LUC Control), the “Luciferase activity + 5 mM MMI” value is on record as 100 ± 6 % Control and the “Luciferase activity +γ-IFN + 5 mM MMI” value is given as 105 ± 5 % Control. For the same compound, the “Luciferase activity + 5 mM MMI” value in data set [2] (p(−127) class I-LUC) turned out to be 135 ± 17 % Control. Also, the “Luciferase activity +γ-IFN + 5 mM MMI” value in data set [2] (p(−127ΔCRE) class I-LUC) is recorded as 101 ± 4 % Control. Moreover, the “Luciferase activity + 5 mM MMI” value in data set [2] (p(−203) class I-LUC) is on record as 105 ± 38 % Control. The “Luciferase activity +γ-IFN + 5 mM MMI” value in data set [2] (p(−203ΔCRE) class I-LUC) was 106 ± 6 % Control. In data set [3] (6 mos), the “Animals … 30-500 (mg/dl proteinuria)” value is listed as 0 of 8; the “Animals … >500 (mg/dl proteinuria)” value is recorded as 0 of 8; the “Animals with proteinuria, Neg-Trace” value is 8 of 8. In data set [3] (7.5 mos), the “Animals … 30-500 (mg/dl proteinuria)” value is on record as 2 of 5; the “Animals … >500 (mg/dl proteinuria)” value is 0 of 5; the “Animals with proteinuria, Neg-Trace” value is reported as 3 of 5. In data set [3], the “significant numbers of immune complexes in kidneys (FIG. 15)” value is recorded as “not true” and the “development of proteinuria at 7.5 mos” value is reported as “significantly prevented proteinuria”. In addition, the “% inhibition of class II RNA expression” value in data set [4] (100 μM) is given as “None”. The “% inhibition of class II RNA expression” value in data set [4] (1 mM) was 29 ± 9%. Besides, the “development of glucosuria and diabetes by 12 weeks” value in data set [5] is on record as “prevented glucosuria”.
